In patent publication US6906097B2, “8-azaprostaglandin analogs as agents for lowering intraocular pressure” (Allergan, Inc., priority 2002, dated 2005):

How the values were obtained:
hEP3D = molecular target: T1, hEP3D (Homo sapiens, UniProt P43115); test: Radioligand binding, hEP3D; conditions: [3H]PGE2 competition
T1 construct: expressed in transfected cells; host or cells: COS-7, transient transfection, plasma membrane fraction
T1 sequence (P43115 1-374 isoform P43115-4): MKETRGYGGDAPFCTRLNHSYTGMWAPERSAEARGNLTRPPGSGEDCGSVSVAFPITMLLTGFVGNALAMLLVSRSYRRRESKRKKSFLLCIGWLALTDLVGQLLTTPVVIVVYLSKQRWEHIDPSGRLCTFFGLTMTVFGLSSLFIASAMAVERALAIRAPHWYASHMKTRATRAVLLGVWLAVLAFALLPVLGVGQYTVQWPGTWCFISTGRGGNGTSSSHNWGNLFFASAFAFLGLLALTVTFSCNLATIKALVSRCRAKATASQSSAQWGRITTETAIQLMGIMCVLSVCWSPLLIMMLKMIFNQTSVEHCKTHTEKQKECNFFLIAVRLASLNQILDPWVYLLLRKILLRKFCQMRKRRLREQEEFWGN
Procedure: For radioligand binding on the transient transfectants, plasma membrane fraction preparation was as follows. COS-7 cells were washed with TME buffer, scraped from the bottom of the flasks, and homogenized for 30 sec using a Brinkman PT 10/35 polytron. TME buffer was added to achieve a final 40 ml volume in the centrifuge tubes. The composition of TME is […]; 10N HCl is added to achieve a pH of 7.4.
The cell homogenate was centrifuged at 19000 rpm for 20 min at 4° C. using a Beckman Ti-60 rotor. The resultant pellet was resuspended in TME buffer to give a final 1 mg/ml protein concentration, as determined by Biorad assay. Radioligand binding assays were performed in a 200 μl volume.
The binding of [^3H] PGE2 (specific activity 165 […]) at EP3D, receptors and [^3H]-SQ29548 (specific activity 41.5 Ci mmol^−1) at TP receptors were determined in duplicate in at least three separate experiments. Radiolabeled PGE2 was purchased from Amersham, radiolabeled SQ29548 was purchased from New England Nuclear. […] Competition studies were performed using a final concentration of 2.5 or 5 nM [^3H]-PGE2, or 10 nM [^3H]-SQ 29548 and non-specific binding determined with 10 μM of the respective unlabeled prostanoid. […]

hTP = molecular target: T2, hTP (Homo sapiens, UniProt P21731); test: Functional data, human recombinant TP receptor stable transfectants; type: cell-based
T2 construct: expressed in transfected cells
T2 sequence (P21731 1-343): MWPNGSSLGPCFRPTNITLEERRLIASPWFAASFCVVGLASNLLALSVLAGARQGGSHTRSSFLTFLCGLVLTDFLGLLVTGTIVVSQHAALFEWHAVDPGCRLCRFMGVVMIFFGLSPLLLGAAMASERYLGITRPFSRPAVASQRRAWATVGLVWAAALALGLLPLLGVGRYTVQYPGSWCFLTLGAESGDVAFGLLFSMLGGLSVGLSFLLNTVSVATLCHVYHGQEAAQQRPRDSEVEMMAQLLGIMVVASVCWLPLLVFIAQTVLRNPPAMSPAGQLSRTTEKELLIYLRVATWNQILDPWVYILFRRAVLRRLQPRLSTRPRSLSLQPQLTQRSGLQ
Procedure: Human Recombinant EP1, EP2, EP3, EP4, FP, TP, IP and DP Receptors: Stable Transfectants
Plasmids encoding the human EP1, EP2, EP3, EP4, FP, TP, IP and DP receptors were prepared by cloning the respective coding sequences into the eukaryotic expression vector pCEP4 (Invitrogen). The pCEP4 vector contains an Epstein Barr virus (EBV) origin of replication, which permits episomal replication in primate cell lines expressing EBV nuclear antigen (EBNA-1). It also contains a hygromycin resistance gene that is used for eukaryotic selection. The cells employed for stable transfection were human embryonic kidney cells (HEK-293) that were transfected with and express the EBNA-1 protein. These HEK-293-EBNA cells (Invitrogen) were grown in medium containing Geneticin (G418) to maintain expression of the EBNA-1 protein. HEK-293 cells were grown in DMEM with 10% fetal bovine serum (FBS), 250 μg ml^−1 G418 (Life Technologies) and 200 μg ml^−1 gentamicin or penicillin/streptomycin.
For transfection, the cells were grown to 50-60% confluency on 10 cm plates. The plasmid pCEP4 incorporating cDNA inserts for the respective human prostanoid receptor (20 μg) was added to 500 μl of 250 mM CaCl2. HEPES buffered saline×2 (2×HBS, 280 mM NaCl, 20 mM HEPES acid, 1.5 mM Na2 HPO4, pH 7.05-7.12) was then added dropwise to a total of 500 μl, with continuous vortexing at room temperature. After 30 min, 9 ml DMEM were added to the mixture. The DNA/DMEM/calcium phosphate mixture was then added to the cells, which had been previously rinsed with 10 ml PBS. The cells were then incubated for 5 hr at 37° C. in humidified 95% air/5% CO2. The calcium phosphate solution was then removed and the cells were treated with 10% glycerol in DMEM for 2 min. The glycerol solution was then replaced by DMEM with 10% FBS. The cells were incubated overnight and the medium was replaced by DMEM/10% FBS containing 250 μg ml^−1 G418 and penicillin/streptomycin. The following day hygromycin B was added to a final concentration of 200 μg ml^−1.
Ten days after transfection, hygromycin B resistant clones were individually selected and transferred to a separate well on a 24 well plate. At confluence each clone was transferred to one well of a 6 well plate, and then expanded in a 10 cm dish. Cells were maintained under continuous hygromycin selection until use.

- IC50 (hEP3D): 12 nM
- EC50 (hTP): > 10000 nM
Compound: O=C(O)CCCCCCN1C(=O)CC[C@@H]1CCC(O)Cc1cccc(Cl)c1 (stereo partly drawn) [Example 1, 7-[2S-[3R-Hydroxy-4-(chloro-phenyl)-butyl]-5-oxo-pyrrolidin-1-yl]-heptanoic acid]
